US8648116B2, “Derivatives of N-(arylamino) sulfonamides including polymorphs as inhibitors of MEK as well as compositions, methods of use and methods for preparing the same” (Ardea Biosciences, Inc., priority 2005, dated 2014)
Marks after values point to notes of the source that are not given here.

Experiments:
human hepatocytes = experiment: Primary hepatocyte toxicity (AK release, ATP, 48 hr); format: cell-based
Protocol: Plated human hepatocytes were obtained from CellzDirect and processed according to manufacturer's instructions.
After 48 hr, supernatant AK levels were determined using Toxilight, and cellular ATP levels were determined using CellTiterGlo. Full kill values were determined using 15 μM VRX-14686.

[1] = tested on: Complete Freund's Adjuvant induced arthritis; experiment: Rat adjuvant arthritis inflammation assay; format: in vivo, rats; settings: 20 mg/kg orally for 5 days
Protocol: In the rat adjuvant induced arthritis model, Complete Freund's Adjuvant (CFA) is injected into the right hind paw of rats to induce pathologies similar to rheumatoid arthritis in humans. Compound A was administered orally for 5 consecutive days at 2, 6, and 20 mg/kg. Dexamethasone at 5 m g/kg was also administered orally for 5 days. Enbrel at 10 mg/kg was administered by subcutaneous injection on days 1 and 4. CFA was injected into the right hind paw one hour after the first dose on day 1. […] Polyarthritis was scored as the presence of swelling in front paws, tail, nose or ear.

[2] = tested on: orthotopic Hep3B2.1-7 human hepatic carcinoma; experiment: Growth response of orthotopic Hep3B tumors in nude mice; format: in vivo, BALB/c nu/nu mice
Protocol: Female BALB/c nu/nu mice (University of Adelaide, Waite Campus, SA, Australia), aged 10-14 weeks, with a body weight range: of 19.1-29.94 g (mean 22.95 g) were used for the study. The mice were divided into 6 Study groups (4 treatment groups and 2 control groups) as follows: • Number of Mice per Group: 10 in Groups 1 to 5 inclusive • 15 in ‘Take-Rate’ Control Group (Group 6)
Hep3B human hepatic carcinoma cells (Passage 2 from working stock VP-Stock 353) were cultured in RPMI1640 cell culture medium, which was supplemented with 10% FBS and penicillin-streptomycin (501 U/mL final concentration). The cells were harvested by trypsinisation, washed twice in HBSS and counted. The cells were then resuspended in HBSS:Matrigel (1:1, v/v) and adjusted to a final volume containing 1×10^8 cells/mL. Prior to inoculation, the incision site was liberally swabbed with alcohol and an incision made through the abdominal wall to expose the liver. The needle was introduced through the surface of the liver where 10 μL of cells (1×10^6 cells) were discharged. The needle was held in this position for approximately 30 seconds to allow the Matrigel® to polymerize in order to avoid leakage of tumor cells into the abdominal cavity.
Treatment commenced 14 days post-inoculation. On Day 7 of the study (21 days post-inoculation), all mice from the ‘Take-Rate’ control group were culled and the livers visually assessed for the presence of tumors.
A stock solution was prepared weekly and stored at 4° C. Dosing solutions were prepared on each day of administration. […] The compound was administered at doses of 2, 10 and 50 mg/kg.
Liver and tumor wet weight were measured when each were excised post-mortem on the termination day of the study. At the termination of the study, livers were excised from all mice in each study group and weighed. The number of visible tumors, if present, was counted. These tumors were removed from the liver and weighed.
A One-Way Analysis of Variance (ANOVA) (All Pairwise Multiple Comparison Procedure and Multiple Comparison versus Control Group) was performed on liver weight and tumor weight data at the end of the study. […] The same statistical analyses were performed on the data for the tumor-bearing mice in the study.

[3] = Concentration-time profiles after a single dose of capsules; design: species or system human cancer patients; settings: human, in vivo, oral, capsules of example 95A
A431 epidermoid tumors = experiment: Anti-tumor xenograft activity, TGI and TGD (Example 94); format: in vivo, nu/nu mice
Protocol: (§1) Human tumors were implanted in nu/nu mice. Compound A was administered orally for 14 days once tumors were approximately 100 mm^3 in size. Tumor growth inhibition (TGI) was determined after 14 days of treatment as the reduction in the size of tumors in treated groups versus vehicle controls. The time to endpoint (TTE) was calculated as the time for the tumor to reach the specified endpoint volume or the last day of the study, whichever came first. Treatment outcome was determined from percent tumor growth delay (% TGD), defined as the percent increase in median TTE of treated versus vehicle-treated control mice. Animals were also monitored for regression responses. Levels of pERK in tumors and brain were determined by Western blots and correlated with plasma levels of Compound A for the pharmacodynamic/pharmacokinetic study. A number of tumor models were evaluated with different doses and dosing regimens. […] The effect of different dosing regimens was evaluated in A375 xenografts.
(§2) Female nu/nu mice were implanted with A375 Melanoma, Colo205 Colon Tumor, A431 Epidermoid Tumor or HT-29 Colon Tumor cells, which were allowed to grow to 100-200 mm^3. Compound A or vehicle was administered orally (25 mg/kg, 50 mg/kg or 100 mg/kg), once a day, for 14 days.
(§3) Tumor Growth Inhibition for the groups treated with 25 mg/kg Compound A were calculated for the indicated tumor xenografts. Tumor Growth Inhibition was measured at the end of once daily dosing for 14 days and calculated according to: […]

[4] = tested on: Colo205 colon cancer tumors; experiment: as above; format: in vivo, nu/nu mice
Protocol: as §1, §2, §3

[5] = tested on: gastric carcinoma Hs746t cells; experiment: Cell proliferation assay (CellTiterGlo, 48 hours); format: cell-based, human; settings: 48 hours treatment
Protocol: Human gastric carcinoma Hs746t cells were obtained from ATCC (Manassas, Va.). […] For cell proliferation experiments, cells were plated in white 96-well plates with clear bases at 3000 cells/100 μl/well.

[6] = tested on: gastric adenocarcinoma AGS cells; experiment: Cell proliferation assay (CellTiterGlo, 3 days and 6 days); format: cell-based, human; settings: 3 days and 6 days exposure
Protocol: Human gastric adenocarcinoma AGS cells were obtained from ATCC (Manassas, Va.). […] For cell proliferation experiments, cells were plated in white 96-well plates with clear bases at 3000 cells/100 μl/well. […] The ATP level for each dose was determined in triplicate using independent wells.

[7] = tested on: BxPC3 pancreatic adenocarcinoma cells; experiment: Anchorage-dependent growth inhibition (ATP content, 48 hr); format: cell-based, human; settings: BxPC3, 48 hr
[8] = Compound A 2 mg/kg p.o. once daily Day 0 to 18, tumor-bearing mice
[9] = Compound A 10 mg/kg p.o. once daily Day 0 to 18, tumor-bearing mice
[10] = Compound A 50 mg/kg p.o. once daily Day 0 to 18, tumor-bearing mice

## COc1cc(F)c(F)c(Nc2ccc(I)cc2F)c1NS(=O)(=O)C1(C[C@H](O)CO)CC1 [Compound A]
Human hepatocytes; Compound A 1.1 (μM), 48 hr
  AK release (% Cell Survival) Hepatocytes Human: 92%
  ATP (% Cell Survival) Hepatocytes Human: 108%
Human hepatocytes; Compound A 3.3 (μM), 48 hr
  AK release (% Cell Survival) Hepatocytes Human: 102%
  ATP (% Cell Survival) Hepatocytes Human: 104%
Human hepatocytes; Compound A 10.0 (μM), 48 hr
  AK release (% Cell Survival) Hepatocytes Human: 112%
  ATP (% Cell Survival) Hepatocytes Human: 107%
Human hepatocytes; Compound A 30.0 (μM), 48 hr
  AK release (% Cell Survival) Hepatocytes Human: 109%
  ATP (% Cell Survival) Hepatocytes Human: 81%
[1]
  animals without front paw swelling (polyarthritis scoring): 2 of 6
  animals without swelling in the tail (polyarthritis scoring): 4 of 6
[1]; acute and delayed phases
  inhibition of paw swelling: significant reduction in swelling
[2]; Compound A 2 mg/kg p.o. once daily Day 0 to 18
  No. of Mice with Tumors (out of 10): 6
[2]; [8]
  Average Liver Weight: 2.775 g
  Average Tumor Weight: 1.776 g
[2]; Compound A 10 mg/kg p.o. once daily Day 0 to 18
  No. of Mice with Tumors (out of 10): 7
[2]; [9]
  Average Liver Weight: 2.551 g
  Average Tumor Weight: 1.407 g
[2]; Compound A 50 mg/kg p.o. once daily Day 0 to 18
  No. of Mice with Tumors (out of 10): 4
[2]; [10]
  Average Liver Weight: 1.677 g
  Average Tumor Weight: 0.624 g
[3]; 2 mg, 2 mg dose, Day 35
  Cmax: 0.202 ng/mL
  Tmax: 2 h
[3]; 4 mg, 4 mg dose, Day 1
  Tmax: 1.5 h
[3]; 4 mg, 4 mg dose, Day 35
  Cmax: 0.544 ng/mL
  Tmax: 1 h
[3]; 10 mg, 10 mg dose, Day 35
  Cmax: 1.57 ng/mL
[3]; 20 mg, 20 mg dose, Day 35
  Cmax: 3.28 ng/mL
[3]; 2 mg dose, Day 35
  AUC: 2.07 ng·h/mL
[3]; 4 mg dose, Day 35
  AUC: 5.12 ng·h/mL
[3]; 10 mg dose, Day 35
  AUC: 14.3 ng·h/mL
[3]; 20 mg dose, Day 35
  AUC: 29.5 ng·h/mL
A431 epidermoid tumors; A431 Epidermoid xenograft, 25 mg/kg QD oral, 14 days
  % TGI: 67%
A431 epidermoid tumors; A431 epidermoid tumors, 25 or 50 mg/kg once daily (QD)
  % TGD, significance: statistically significant
[4]; Colo205 Colon xenograft, 25 mg/kg QD oral, 14 days, range from 2 separate studies
  % TGI: 70-123** %
[4]; Colo205 colon cancer tumors, 25 or 50 mg/kg once daily (QD)
  % TGD, significance: statistically significant

## COc1cc(F)c(F)c(Nc2ccc(I)cc2F)c1NS(=O)(=O)C1(C[C@H](O)CO)CC1
[5]
  proliferation of Hs746t cells: inhibits the proliferation
Human hepatocytes; freshly plated primary human hepatocytes, 30 μM, 48 hr
  survival: 81%
Human hepatocytes; primary normal human hepatocytes
  cytotoxicity: little cytotoxicity
[6]
  proliferation of AGS cell line: inhibits the proliferation
[7]
  GI50: > 1000 nM
[2]; 2, 10 and 50 mg/kg p.o. once daily
  liver and tumor weight: dose-dependent trend in the decrease
[2]; tumor-bearing mice, 10 mg/kg p.o. once daily
  average weight of the tumors vs Vehicle Control: significantly different
[2]; tumor-bearing mice, 50 mg/kg p.o. once daily
  average weight of the tumors vs Vehicle Control: significantly different
[2]; tumor-bearing mice, 50 mg/kg p.o. once daily, p<0.05
  average weight of the liver vs Vehicle Control: significantly different
